Drawing on patent US9670204B2, “Compounds and pharmaceutical compositions thereof for the treatment of inflammatory disorders” (Galapagos NV, priority 2013, dated 2017), this text covers IC50 for 20 compounds.

Test [1] concerns the target T1, hENPP2 (UniProtKB/SwissProt Q13822) (Homo sapiens (Human), UniProt Q13822). Description: hENPP2 biochemical assay, LPC as substrate. To be noted: LPC (palmitoyl 16:0) as substrate. Summed up:
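Human ENPP2 in 50 mM Tris-HCl pH 8.5, 500 mM NaCl, 5 mM KCl, 10 mM CaCl2, 0.1% fatty-acid-free BSA, reacted 30 min at 37 °C with LPC 16:0 (150 µM solution added 1:1). Released choline measured via choline oxidase/peroxidase/TOOS/4-aminoantipyrine quinoneimine dye at 555 nm; IC50 reported.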

Test [2] concerns the target T1, hENPP2. Description: fluorescent hENPP2 biochemical assay, FS-3 as substrate. To be noted: read-out: FS3-IC50. In short, it runs like this: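 hENPP2 in 50 mM Tris-HCl pH 8.0, 250 mM NaCl, 5 mM KCl, 1 mM MgCl2, 1 mM CaCl2, 0.1% fatty-acid-free BSA, preincubated with compound 30 min at room temperature. The 0.75 μM FS-3 solution was added and the mixture incubated 30 min at 30° C. Fluorescence (ex 485/em 520 nm) gives IC50.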

The test system of another test is LPA 18:2 in rat plasma. Description: Rat whole blood (plasma) LPA assay. Format: biochemical. To be noted: 2 h at 37 C, LPA 18:2 by LC-MS/MS. The protocol: Whole blood is collected from rats or mouse by exsanguinations on sodium heparin tube, then after centrifugation at 3000 rpm for 15 min at 4° C., plasma is stored at −80° C. Compounds are diluted in DMSO in concentration dependent manner then 0.5 μL are dispensed into 96-well plate placed in ice. Plasma is defrosted on ice then 49.5 μL of plasma are added into the well containing 0.5 μL of compound (1% DMSO final). Plates are covered with a lid in polypropylene and incubated at +37° C., 5% CO2, for 2 h under gentle shaking (except controls which are stored at −20° C.).
At the end of the incubation, controls are defrosted in ice and transferred in the incubated plates for LC-MS/MS analysis with a non GLP-validated method. For the analysis, plasma proteins from a 10 μL incubated plates are precipitated with an excess of methanol containing the internal standard, LPA 17:0. After centrifugation, the corresponding supernatant is injected on a C18 column. Analytes are eluted out of the column under isocratic conditions. An API5500 QTRAP mass spectrometer (ABSciex™) is used for the detection of LPA 18:2. No calibration curve is prepared for LPA 18:2, however relative quantities are evaluated based on the peak area.

What is called IC50 is the concentration at which inhibition is half-maximal. Turning to `CCc1nc2ccc(N3CCN(Cc4cnc[nH]4)CC3)cn2c1N(C)c1nc(-c2ccc(F)cc2)cs1` [Compound 192, N-(6-(4-((1H-imidazol-5-yl)methyl)piperazin-1-yl)-2-ethylimidazo[1,2-a]pyridin-3-yl)-4-(4-fluorophenyl)-N-methylthiazol-2-amine], the IC50 is 500 to 1000 nM against hENPP2 [1], 0.01 to 100 nM on hENPP2 [2] and more than 1000 nM in the test on LPA 18:2 in rat plasma.
The corresponding values for `CCc1nc2ccc(N3CCN(S(C)(=O)=O)CC3)cn2c1N(C)c1nc(-c2ccc(F)cc2)cs1` [Compound 54, N-(2-ethyl-6-(4-(methylsulfonyl)piperazin-1-yl)imidazo [1,2-a]pyridin-3-yl)-4-(4-fluorophenyl)-N-methylthiazol-2-amine] are 500 to 1000 nM, 0.01 to 100 nM and more than 1000 nM.
Take `CCc1nc2ccc(N3CCN(S(C)(=O)=O)CC3)cn2c1N(C)c1nc(-c2ccc(Cl)cc2)ns1` [Compound 188, 3-(4-chlorophenyl)-N-(2-ethyl-6-(4-(methylsulfonyl)piperazin-1-yl)imidazo[1,2-a]pyridin-3-yl)-N-methyl-1,2,4-thiadiazol-5-amine]: the IC50 on hENPP2 [1] was more than 1000 nM; on hENPP2 [2], 0.01 to 100 nM; in the test with LPA 18:2 in rat plasma, more than 1000 nM.
As for `CCc1nc2ccc(C3CCN(CC(=O)N4CC[C@H](O)C4)CC3)cn2c1N(C)c1nc(-c2ccc(F)cc2)c(C#N)s1` [Compound 143, (S)-2-((2-ethyl-6-(1-(2-(3-hydroxypyrrolidin-1-yl)-2-oxoethyl)piperidin-4-yl)imidazo[1,2-a]pyridin-3-yl)(methyl)amino)-4-(4-fluorophenyl)thiazole-5-carbonitrile], the IC50 at hENPP2 [1], on hENPP2 [2] and with LPA 18:2 in rat plasma was 0.01 to 100 nM in each case.
On to `CCc1nc2ccc(N3CCS(=O)(=O)CC3)cn2c1N(C)c1nc(-c2ccc(F)cc2)cs1` [Compound 182, 4-(2-ethyl-3-((4-(4-fluorophenyl)thiazol-2-yl)(methyl)amino)imidazo[1,2-a]pyridin-6-yl)-thiomorpholine 1,1-dioxide], for which the half-inhibitory concentration (IC50) is more than 1000 nM on hENPP2 [1], 0.01 to 100 nM at hENPP2 [2] and more than 1000 nM with LPA 18:2 in rat plasma.
Take `CCc1nc2ccc(N3CCN(Cc4ncc[nH]4)CC3)cn2c1N(C)c1nc(-c2ccc(F)cc2)cs1` [Compound 226, N-(6-(4-((1H-imidazol-2-yl)methyl)piperazin-1-yl)-2-ethylimidazo[1,2-a]pyridin-3-yl)-4-(4-fluorophenyl)-N-methylthiazol-2-amine]: the IC50 is more than 1000 nM at hENPP2 [1], 0.01 to 100 nM at hENPP2 [2] and more than 1000 nM in the test with LPA 18:2 in rat plasma.
In the case of `CCc1nc2ccc(C3CCN(S(C)(=O)=O)CC3)cn2c1N(C)c1nc(-c2ccc(F)cc2C#N)cs1` [Compound 96, 2-(2-((2-ethyl-6-(1-(methylsulfonyl)piperidin-4-yl)imidazo [1,2-a]pyridin-3-yl)(methyl)amino)thiazol-4-yl)-5-fluorobenzonitrile], the values for the IC50 against hENPP2 [1], at hENPP2 [2] and in the test on LPA 18:2 in rat plasma were 100 to 500 nM, 0.01 to 100 nM and 0.01 to 100 nM, respectively.
Regarding `CCc1nc2ccc(C3CCN(CC(=O)N4CC(O)C4)CC3)cn2c1N(C)c1nc(-c2ccc(F)cc2C#N)cs1` [Compound 170, 2-(2-((2-ethyl-6-(1-(2-(3-hydroxyazetidin-1-yl)-2-oxoethyl)piperidin-4-yl)imidazo[1,2-a]pyridin-3-yl)(methyl)amino)thiazol-4-yl)-5-fluorobenzonitrile], the values for the IC50 against hENPP2 [1], on hENPP2 [2] and in the test on LPA 18:2 in rat plasma were 0.01 to 100 nM, 0.01 to 100 nM and 100 to 500 nM, respectively.
In the case of `CCc1nc2ccc(C3CCN(CC(=O)N(C)C)CC3)cn2c1N(C)c1nc(-c2ccc(F)cc2)c(C#N)s1` [Compound 145, 2-(4-(3-((5-cyano-4-(4-fluorophenyl)thiazol-2-yl)(methyl)amino)-2-ethylimidazo[1,2-a]pyridin-6-yl)piperidin-1-yl)-N,N-dimethylacetamide], the IC50 against hENPP2 [1], on hENPP2 [2] and in the test on LPA 18:2 in rat plasma was 0.01 to 100 nM each time.
In the case of `CN(C)C(=O)CN1CCC(c2ccc3nc(CCC#N)c(N(C)c4nc(-c5ccc(F)cc5)cs4)n3c2)CC1` [Compound 174, 2-(4-(2-(2-cyanoethyl)-3-((4-(4-fluorophenyl)thiazol-2-yl)(methyl)amino)imidazo[1,2-a]pyridin-6-yl)piperidin-1-yl)-N,N-dimethylacetamide], the IC50 at hENPP2 [1], at hENPP2 [2] and in the test with LPA 18:2 in rat plasma was 0.01 to 100 nM in each case.
On to `CCc1nc2ccc(C3CCN(S(C)(=O)=O)CC3)cn2c1N(C)c1nc(-c2ccc(F)cc2)c(CO)s1` [Compound 147, (2-((2-ethyl-6-(1-(methylsulfonyl)piperidin-4-yl)imidazo[1,2-a]pyridin-3-yl)(methyl)amino)-4-(4-fluorophenyl)thiazol-5-yl)methanol], for which the values for the IC50 against hENPP2 [1], on hENPP2 [2] and with LPA 18:2 in rat plasma were 100 to 500 nM, 0.01 to 100 nM and 100 to 500 nM, respectively.
`CCc1nc2ccc(N3CCN(CC(=O)N4CC[C@@H](O)C4)CC3)cn2c1N(C)c1nc(-c2ccc(F)cc2)cs1` [Compound 26, (R)-2-(4-(2-ethyl-3-((4-(4-fluorophenyl)thiazol-2-yl)(methyl)amino)imidazo[1,2-a]pyridin-6-yl)piperazin-1-yl)-1-(3-hydroxypyrrolidin-1-yl)ethanone]: the figures for the IC50 on hENPP2 [1] and in the test with LPA 18:2 in rat plasma were 100 to 500 nM and more than 1000 nM, respectively.
Consider `CCc1nc2ccc(C3=CCN(S(C)(=O)=O)CC3)cn2c1N(C)c1nc(-c2ccc(OC(F)(F)F)cc2)cs1` [Compound 72, N-(2-ethyl-6-(1-(methylsulfonyl)-1,2,3,6-tetrahydropyridin-4-yl)imidazo[1,2-a]pyridin-3-yl)-N-methyl-4-(4-(trifluoromethoxy)phenyl)thiazol-2-amine], for which the IC50 is 100 to 500 nM on hENPP2 [1] and more than 1000 nM in the test with LPA 18:2 in rat plasma.
Take `CCc1nc2ccc(C3CCN(CC(=O)N4CC(CO)C4)CC3)cn2c1N(C)c1nc(-c2ccc(F)cc2)c(C#N)s1` [Compound 144, 2-((2-ethyl-6-(1-(2-(3-(hydroxymethyl)azetidin-1-yl)-2-oxoethyl)piperidin-4-yl)imidazo[1,2-a]pyridin-3-yl)(methyl)amino)-4-(4-fluorophenyl)thiazole-5-carbonitrile]: the IC50 against hENPP2 [1] and in the test with LPA 18:2 in rat plasma was 0.01 to 100 nM throughout.
For `CCc1nc2ccc(N3CCN(CC(=O)N(C)C)CC3)cn2c1N(C)c1nc(-c2ccc(F)cc2)c(C#N)s1` [Compound 140, 2-(4-(3-((5-cyano-4-(4-fluorophenyl)thiazol-2-yl)(methyl)amino)-2-ethylimidazo[1,2-a]pyridin-6-yl)piperazin-1-yl)-N,N-dimethylacetamide], the IC50 on hENPP2 [1] and in the test with LPA 18:2 in rat plasma was 0.01 to 100 nM in each case.
On to `CN(c1nc(-c2ccc(F)cc2)c(CO)s1)c1c(CCC#N)nc2ccc(C3CCN(S(C)(=O)=O)CC3)cn12` [Compound 175, 3-(3-((4-(4-fluorophenyl)-5-(hydroxymethyl)thiazol-2-yl)(methyl)amino)-6-(1-(methylsulfonyl)piperidin-4-yl)imidazo[1,2-a]pyridin-2-yl)propanenitrile], for which the IC50 against hENPP2 [1] was 500 to 1000 nM; with LPA 18:2 in rat plasma, 100 to 500 nM.
The matching figures for `CCc1nc2ccc(C3CCN(CC(=O)N4CC[C@@H](O)C4)CC3)cn2c1N(C)c1nc(-c2ccc(F)cc2)c(C#N)s1` [Compound 142, (R)-2-((2-ethyl-6-(1-(2-(3-hydroxypyrrolidin-1-yl)-2-oxoethyl)piperidin-4-yl)imidazo[1,2-a]pyridin-3-yl)(methyl)amino)-4-(4-fluorophenyl)thiazole-5-carbonitrile]: 0.01 to 100 nM and 0.01 to 100 nM.
The matching figures for `CCc1nc2ccc(C3CCN(S(=O)(=O)CCCN(C)C)CC3)cn2c1N(C)c1nc(-c2ccc(F)cc2)c(CO)s1` [Compound 149, (2-((6-(1-(3-(dimethylamino)propyl-sulfonyl)piperidin-4-yl)-2-ethylimidazo[1,2-a]pyridin-3-yl)(methyl)amino)-4-(4-fluorophenyl)thiazol-5-yl)]: 100 to 500 nM and more than 1000 nM.
The matching figures for `CCC(=O)N1CCC(c2ccc3nc(CC)c(N(C)c4nc(-c5ccc(F)cc5)c(CO)s4)n3c2)CC1` [Compound 154, 1-(4-(2-ethyl-3-((4-(4-fluorophenyl)-5-(hydroxymethyl)thiazol-2-yl)(methyl)amino)imidazo[1,2-a]pyridin-6-yl)piperidin-1-yl)propan-1-one]: 100 to 500 nM and 500 to 1000 nM.
For the compound `CCc1nc2ccc(N3CCN(C(=O)C4CCN(C(C)=O)C4)CC3)cn2c1N(C)c1nc(-c2ccc(F)cc2)cs1` (stereo not drawn) [Compound 48, 1-{3-[4-(2-Ethyl-3-{[4-(4-fluoro-phenyl)-thiazol-2-yl]-methyl-amino}-imidazo[1,2-a]pyridin-6-yl)-piperazine-1-carbonyl]-pyrrolidin-1-yl}-ethanone], the IC50 against hENPP2 [1] and in the test on LPA 18:2 in rat plasma was more than 1000 nM in each case.
